Data reported in US10995091B2 (Proximagen, LLC, priority 2010, dated 2021).

biological target: T1, Human CXCR4 transfected HEK293 cells (Homo sapiens, UniProt P61073); test: CXCR4 functional calcium assay (calcium flux FLIPR, antagonism of SDF1 response); type: cell-based; settings: CXCR4 functional activity, antagonism of SDF1 (EC50 concentration), read-out: CXCR4 fKi
T1 construct: expressed in transfected cells; host or cells: HEK293
Protocol: The functional activity of test compounds was routinely tested by measuring the ability of compounds to antagonize CXCR4 activity in a dose dependent manner, using a calcium flux Fluorescent Imaging Plate Reader FLIPR assay.
Human CXCR4 transfected HEK293 cells were cultured in Dulbecco's modified Eagles medium containing 4.5 g/L glucose, L-glutamine, pyruvate, 50 µg/mL Geneticin and 250 µg/mL hygromycin B and maintained at 37° C. in a humidified, 5% CO2 controlled atmosphere. Subcultivations were performed every 2-3 d.
At confluence the cells were lifted using Ca^2+ and Mg^2+ free PBS/0.02% (w/v) EDTA, spun at 1000 rpm for 3 min and resuspended at 2.5×10^5 cells/mL. Cells were plated into a 384 well, poly-d-lysine coated, black with clear bottomed plate (Becton Dickinson) at 7500 cells/well. The plates were incubated overnight at 37° C. under 5% CO2. On the day of the experiment the cells were washed with incubation Buffer (HBSS containing 2.5 mM probenecid, 0.1% w/v BSA and 10 mM HEPES, pH 7.4 at 37° C.). After washing, the cells were loaded with Fluo-4 AM dye (Molecular probes) at 2 µM containing 0.48 µg/mL pluronic acid for 60 min at 37° C. under 5% CO2. After thorough washing with incubation buffer the cells were preincubated for 10 min at 37° C. before use.
A combined agonist/antagonist protocol was used to measure changes in intracellular calcium concentration. Compound (antagonist) was added to the cell plate using a Fluorometric Imaging Plate Reader (FLIPR) (Molecular Devices, Sunnyvale, Calif., USA). Basal fluorescence was recorded every second for 10 seconds prior to compound addition (10 μl) and fluorescence recorded every second for 1 min then every 6 seconds for a further 1 min. SDF1[…] (EC50 concentration) was then added using the FLIPR and fluorescence recorded as described above. Curve-fitting and parameter estimation were carried out using GraphPad Prism 4.0 (GraphPad Software Inc., San Diego, Calif.).

T1 sequence (P61073 whole entry): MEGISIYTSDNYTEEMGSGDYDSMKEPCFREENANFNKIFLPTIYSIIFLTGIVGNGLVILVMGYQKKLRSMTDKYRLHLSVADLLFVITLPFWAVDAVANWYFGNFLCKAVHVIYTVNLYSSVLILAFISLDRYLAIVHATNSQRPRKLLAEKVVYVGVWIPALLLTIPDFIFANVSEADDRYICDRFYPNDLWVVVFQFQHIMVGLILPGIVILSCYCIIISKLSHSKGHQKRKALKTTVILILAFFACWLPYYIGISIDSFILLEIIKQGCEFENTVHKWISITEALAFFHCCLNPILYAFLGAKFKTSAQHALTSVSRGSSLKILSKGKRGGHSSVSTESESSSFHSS

Ki [nM] | Structure (SMILES)
500 to 1000 | O=C(NCC1CC1)c1cccc(N2CCCN(C3CCN(C4CC4)CC3)CC2)n1 [Example 62, N-(Cyclopropylmethyl)-6-[4-(1-cyclopropylpiperidin-4-yl)-1,4-diazepan-1-yl]pyridine-2-carboxamide]
20 to 100 | CC(C)N1CCC(N2CCCN(c3cccc(C(=O)NCc4cccnc4)n3)CC2)CC1C (centres unmarked) [Example 215, 6-{4-[2-Methyl-1-(propan-2-yl)piperidin-4-yl]-1,4-diazepan-1-yl}-N-(pyridin-3-ylmethyl)pyridine-2-carboxamide]
20 to 100 | CCCCNC(=O)c1cccc(N2CCCN(CC3CN(C(C)C)CCO3)CC2)n1 (centres unmarked) [Example 250, N-Butyl-6-(4-{[4-(propan-2-yl)morpholin-2-yl]methyl}-1,4-diazepan-1-yl)pyridine-2-carboxamide]
20 to 100 | COCC(C)N1CCC(N2CCCN(c3cccc(C(=O)NCC4CC4)n3)CC2)CC1 (centres unmarked) [Example 127, N-(Cyclopropylmethyl)-6-{4-[1-(1-methoxypropan-2-yl)piperidin-4-yl]-1,4-diazepan-1-yl}pyridine-2-carboxamide]
20 to 100 | Cc1nc(-c2cccc(N3CCN(C4CCCN(C5CCCC5)CC4)CC3)n2)[nH]c1C1CC1 (centres unmarked) [Example 245, 1-Cyclopentyl-4-{4-[6-(5-cyclopropyl-4-methyl-1H-imidazol-2-yl)pyridin-2-yl]piperazin-1-yl}azepane]
100 to 500 | Cc1nc(-c2cccc(NCCNC3CCN(C(C)C)CC3)n2)[nH]c1C1CC1 [Example 236, N-(2-{[6-(5-Cyclopropyl-4-methyl-1H-imidazol-2-yl)pyridin-2-yl]amino}ethyl)-1-(propan-2-yl)piperidin-4-amine]
< 20 | CC(C)N1CCC(N2CCCN(c3cccc(C(=O)Nc4nccs4)n3)CC2)CC1 [Example 31, 6-{4-[1-(Propan-2-yl)piperidin-4-yl]-1,4-diazepan-1-yl}-N-(1,3-thiazol-2-yl)pyridine-2-carboxamide]
100 to 500 | COCCCNC(=O)c1cccc(N2CCCN(C3CCN(C(C)C)CC3)CC2)n1 [Example 15, N-(3-Methoxypropyl)-6-{4-[1-(propan-2-yl)piperidin-4-yl]-1,4-diazepan-1-yl}pyridine-2-carboxamide]
100 to 500 | c1cc(NCCNCCCNC2CCCC2)nc(-c2ncc(C3CC3)[nH]2)c1 [Example 237, N-(2-{[3-(Cyclopentylamino)propyl]amino}ethyl)-6-(5-cyclopropyl-1H-imidazol-2-yl)pyridin-2-amine]
< 20 | [2H]C1([2H])CCN(c2cccc(C(=O)Nc3ccncc3)n2)CCN1C1CCN([C@H](C)CC)CC1 [Example 188, 6-(4-{1-[(2R)-Butan-2-yl]piperidin-4-yl}-5,5-dihydrogenio-1,4-diazepan-1-yl)-N-(pyridin-4-yl)pyridine-2-carboxamide]
20 to 100 | CCCCNC(=O)c1cccc(N2CCCN(C3CCN([C@@H](C)C(F)(F)F)CC3)CC2)n1 [Example 93, N-Butyl-6-(4-{1-[(2S)-1,1,1-trifluoropropan-2-yl]piperidin-4-yl}-1,4-diazepan-1-yl)pyridine-2-carboxamide]
20 to 100 | O=C(NCC1CC1)c1cccc(N2CCCN(C3CCN([C@@H]4CCc5ccccc54)CC3)CC2)n1 [Example 76, N-(Cyclopropylmethyl)-6-(4-{1-[(1R)-2,3-dihydro-1H-inden-1-yl]piperidin-4-yl}-1,4-diazepan-1-yl)pyridine-2-carboxamide]
500 to 1000 | CC(C)N1CCC(N2CCCN(c3cccc(-c4c[nH]c5ccccc45)n3)CC2)CC1 [Example 102, 3-(6-{4-[1-(Propan-2-yl)piperidin-4-yl]-1,4-diazepan-1-yl}pyridine-2-yl)-1H-indole]
< 20 | Cc1cc(NC(=O)c2cccc(N3CCCN(C4CCN(Cc5ccccc5Cl)CC4)CC3)n2)ccn1 [Example 84, 6-(4-{1-[(2-Chlorophenyl)methyl]piperidin-4-yl}-1,4-diazepan-1-yl)-N-(2-methylpyridine-4-yl)pyridine-2-carboxamide]
100 to 500 | O=C(NCC1CC1)c1cccc(N2CCCN(C3CCN(Cc4ccc(F)cc4)CC3)CC2)n1 [Example 130, N-(Cyclopropylmethyl)-6-(4-{1-[(4-fluorophenyl)methyl]piperidin-4-yl}-1,4-diazepan-1-yl)pyridine-2-carboxamide]
100 to 500 | CC(C)N1CCCC(NCCNc2cccc(C(=O)Nc3ccncc3)n2)CC1 (centres unmarked) [Example 234, 6-[(2-{[1-(Propan-2-yl)azepan-4-yl]amino}ethyl)amino]-N-(pyridin-4-yl)pyridine-2-carboxamide]
< 20 | CC(C)N1CCC(N2CCCN(c3cccc(-c4nc5ccc(C#N)cc5[nH]4)n3)CC2)CC1 [Example 149, 2-(6-{4-[1-(Propan-2-yl)piperidin-4-yl]-1,4-diazepan-1-yl}pyridine-2-yl)-1H-1,3-benzodiazole-6-carbonitrile]
100 to 500 | CC(C)N1CCC(N2CCCN(c3cccc(-c4nnn(C)n4)n3)CC2)CC1 [Example 168, 1-[6-(2-Methyl-2H-1,2,3,4-tetrazol-5-yl)pyridin-2-yl]-4-[1-(propan-2-yl)piperidin-4-yl]-1,4-diazepane]
< 20 | CC(C)N1CCC(N2CCCN(c3cccc(C(=O)Nc4ccccn4)n3)CC2)CC1 [Example 28, 6-{4-[1-(Propan-2-yl)piperidin-4-yl]-1,4-diazepan-1-yl}-N-(pyridin-2-yl)pyridine-2-carboxamide]
100 to 500 | CC(C)N1CCC(N2CCCN(c3cccc(C(=O)NC4CC4)n3)CC2)CC1 [Example 11, N-Cyclopropyl-6-{4-[1-(propan-2-yl)piperidin-4-yl]-1,4-diazepan-1-yl}pyridine-2-carboxamide]
100 to 500 | Cc1nc(-c2cccc(N3CCCN(C4CCN(C5CCCC5)CC4F)CC3)n2)[nH]c1C1CC1 (centres unmarked) [Example 214, 1-(1-Cyclopentyl-3-fluoropiperidin-4-yl)-4-[6-(4-cyclopropyl-5-methyl-1H-imidazol-2-yl)pyridin-2-yl]-1,4-diazepane]
500 to 1000 | O=C(NCC1CC1)c1cccc(N2CCCN(C3CCN(Cc4ccccc4)CC3)CC2)n1 [Example 129, 6-[4-(1-Benzylpiperidin-4-yl)-1,4-diazepan-1-yl]-N-(cyclopropylmethyl)pyridine-2-carboxamide]
20 to 100 | CC(C)N1CCC(N2CCCN(c3cccc(-c4nc5cccc(F)c5[nH]4)n3)CC2)CC1 [Example 142, 7-Fluoro-2-(6-{4-[1-(propan-2-yl)piperidin-4-yl]-1,4-diazepan-1-yl}pyridine-2-yl)-1H-1,3-benzodiazole]
100 to 500 | CCc1cnc(-c2cccc(N3CCCN(C4CCN([C@@H](C)C(F)(F)F)CC4)CC3)n2)[nH]1 [Example 115, 1-[6-(4-Ethyl-1H-imidazol-2-yl)pyridine-2-yl]-4-{1-[(2S)-1,1,1-trifluoropropan-2-yl]piperidin-4-yl}-1,4-diazepane]
100 to 500 | Cc1ccc(N2CCCN(C3CCN(C(C)C)CC3)CC2)nc1C(=O)NCC1CC1 [Example 125, N-(Cyclopropylmethyl)-3-methyl-6-{4-[1-(propan-2-yl)piperidin-4-yl]-1,4-diazepan-1-yl}pyridine-2-carboxamide]
100 to 500 | CC(C)N1CCC(N2CCCN(c3cccc(-c4cc5cnccc5[nH]4)n3)CC2)CC1 [Example 97, 1-[1-(Propan-2-yl)piperidin-4-yl]-4-(6-{1H-pyrrolo[3,2-c]pyridine-2-yl}pyridine-2-yl)-1,4-diazepane]
